The record followed here is publication PMC11587507, “The Importance of Stereochemistry in 5-HT7R Modulation—A Case Study of Hydantoin Derivatives” (ACS Chemical Neuroscience, 2024).

Series [1] has as its target dopamine D2LR (Homo sapiens, UniProt P14416). Put plainly: Radioligand binding assay, [3H]-raclopride displacement. The settings on record: mean ± SD from two independent measurements; read-out: Ki D2. As to the method: (§1) Cell pellets were thawed and homogenized in 10 vol of assay buffer using an Ultra Turrax tissue homogenizer and centrifuged twice at 35 000 g for 15 min at 4 °C, with incubation for 15 min at 37 °C in between. The composition of the assay buffers was as follows: for 5-HT1AR: 50 mM Tris HCl, 0.1 mM EDTA, 4 mM MgCl2, 10 μM pargyline and 0.1% ascorbate; for 5-HT2AR: 50 mM Tris HCl, 0.1 mM EDTA, 4 mM MgCl2 and 0.1% ascorbate; for 5- HT7bR: 50 mM Tris HCl, 4 mM MgCl2, […] and 0.1% ascorbate; and for dopamine D2LR: 50 mM Tris HCl, 1 mM EDTA, 4 mM MgCl2, 120 mM NaCl, 5 mM KCl, 1.5 mM CaCl2 and 0.1% ascorbate. All assays were incubated in a total volume of […] in 96-well microtiter plates for 1 h at 37 °C, except 5-HT2AR which was incubated at 27 °C. The process of equilibration was terminated by rapid filtration through Unifilter plates with a 96-well cell harvester, and radioactivity retained on the filters was quantified on a Microbeta plate reader (PerkinElmer, USA). For displacement studies, the assay samples contained as radioligands (PerkinElmer, USA): 2.5 nM [^3H]-8-OH-DPAT (135.2 Ci/mmol) for 5-HT1AR; 1 nM [3H]-ketanserin (53.4 Ci/mmol) for 5- HT2AR; 0.8 nM [3H]-5- CT (39.2 Ci/mmol) for 5-HT7R or 2.5 nM [3H]-raclopride (72 Ci/mmol) for D2LR. Nonspecific binding was defined with […] of 5-HT in 5-HT7R binding experiments, whereas […] were used in 5-HT2AR and D2L assays, respectively. Each compound was tested in triplicate at 7 concentrations (10^–10–10^–4 M). The inhibition constants (Ki) were calculated using the Cheng–Prusoff equation.[48] Results were expressed as means of at least two separate experiments.

For series [2], the target named is T1, 5-HT1AR (Homo sapiens, UniProt P08908).
T1 sequence (P08908 1-422): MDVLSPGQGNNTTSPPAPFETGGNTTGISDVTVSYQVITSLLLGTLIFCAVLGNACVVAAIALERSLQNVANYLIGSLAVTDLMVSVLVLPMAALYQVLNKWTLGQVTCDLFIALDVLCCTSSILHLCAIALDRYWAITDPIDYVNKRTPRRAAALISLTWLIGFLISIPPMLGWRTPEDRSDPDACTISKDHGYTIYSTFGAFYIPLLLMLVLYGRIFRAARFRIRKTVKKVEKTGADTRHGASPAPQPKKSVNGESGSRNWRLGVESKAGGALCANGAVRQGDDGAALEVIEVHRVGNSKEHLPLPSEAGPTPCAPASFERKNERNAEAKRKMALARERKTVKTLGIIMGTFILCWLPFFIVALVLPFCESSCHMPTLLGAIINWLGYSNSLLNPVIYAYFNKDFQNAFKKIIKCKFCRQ
The experiment in a line: Radioligand binding assay, [3H]-8-OH-DPAT displacement. The settings on record: mean ± SD from two independent measurements; read-out: Ki 5-HT1A. As for the experimental part:
as §1

The subject of series [3] is GABA (non-specific). The experiment in a line: GABA (non-specific) binding screening at 1 µM (Eurofins Cerep). As for the experimental part:
(§2) 1.In vitro evaluation towards another related protein target (GABA, NK 1)
(§3) Table S2. Affinity results to GABA and NK 1 […]
(§4) Screening at 1 µM Screening at 1 µM
(§5) (% inhibition of control (% of inhibtion of control agonist response) specific binding) […]
(§6) adata are presented as the mean ± SD from two independent measurements
(§7) The above biological screening have been performed at Eurofins Cerep (2, rue du Professeur GARGOUÏL, B.P. 30001, 86 600 Celle l'Evescault, France according to previously described […]
(§8) Tsuji, A. et al. (1988), Antimicrob. Agents Chemother., 32: 190-194.
(§9) Eistetter, H.R. et al. (1992), Glia, 6: 89-95.
(§10) Detailed parameters for NK1 assay:
(§11) Detailed parameters for GABA (non-specific) assay: […]

The test system of series [4] is immobility time. The experiment in a line: Forced swim test (FST, Porsolt's test) in mice. The class given is in vivo. The settings on record: 60 min before test. As for the experimental part:
(§12) The behavioral experiments were performed on male BalbC mice weighing 20–25 g, n = 333. The animals were purchased from the Animal House at the Faculty of Pharmacy, Jagiellonian University Medical College, Krakow, Poland. Mice were kept in groups of ten in Makrolon type 3 cages (dimensions 26.5 × 15 × 42 cm). The animals were kept in an environmentally controlled room (ambient temperature 22 ± 2 °C; relative humidity 50–60%; 12:12 light: dark cycle; and lights on at 8:00). They were allowed to acclimatize with the environment enriched by nesting material, tooth grinding material, houses, and toys for 1 week before commencement of the experiments. During acclimatization, mice were accustomed to the presence of female experimenters and their appropriate manner of animals’ restraint, i.e., cupping each separate mouse in open hands, according to the 3Rs recommendations (handling).[50],[51] Standard laboratory food (Sniff M-Z) and filtered water were freely available. All the experiments were conducted in the light phase between 9 AM and 2 PM. Experimental groups consisted of 6–10 randomly selected animals, depending on the experiment, and each animal was used only once. The experiments were performed by an observer who was unaware of the treatment administered. All the experimental procedures with mice were carried out under EU Directive 2010/63/EU and were approved by the Local Ethics Commission for Animal Experiments of Jagiellonian University in Krakow (Approval nos.:297/2019).
(§13) Compounds were injected once intraperitoneally (i.p.) 60 min before tests, at a volume of 10 mL/kg. Control animals received a vehicle injection according to the same schedule.
The FST experiment was carried out according to the method of Porsolt et al.[52] The total duration of immobility was recorded during the last 4 min of this 6 min period. The reduction of immobility time compared to the control was a measure of antidepressant properties of the tested compound. A mouse was regarded as immobile when it remained floating on water, making only small movements to keep its head above it.

The target in series [5] is T2, NK1 (Homo sapiens, UniProt P25103).
T2 construct: Eurofins Cerep
Put plainly: NK1 screening at 1 µM (Eurofins Cerep). The class given is cell-based. The settings on record: read-out: NK1 % inhibition of control agonist response. As for the experimental part: as §2, §3, §4, §5, §6, §7, §8, §9, §10, §11

Series [6] has as its system punished crossings. Put plainly: Four-plate test (FPT) in mice. The class given is in vivo. Particulars: i.p., all doses tested. As to the method: as §12, §13
The four-plate apparatus (Bioseb, Pinellas Park, USA) was used for tests. Following a 15 s habituation period, the animal’s motivation to explore a novel environment is suppressed by an electric foot shock (0.8 mA, 0.5 s) every time it moves from one plate to another during a 1 min test session. This action is referred to as a “punished crossing” and is followed by a 3 s shock interval, during which the animal can move across plates without receiving a shock.[53]

In series [7] the target is 5-HT2AR (Homo sapiens, UniProt P28223). The experiment in a line: Radioligand binding assay, [3H]-ketanserin displacement. The settings on record: mean ± SD from two independent measurements; read-out: Ki 5-HT2A. As to the method:
as §1

Series [8] deals with locomotor activity. The experiment in a line: Spontaneous locomotor activity in mice. The class given is in vivo. As for the experimental part: as §12, §13
Locomotor activity was recorded with an Opto M3 multichannel activity monitor (Columbus Instruments, Columbus, USA). […] According to the 3Rs recommendations,[54] locomotor activity was assessed for the minimal active doses obtained in FST and/or FPT to ensure that detected antidepressant-/anxiolytic-like effects are not the result of increased motility of mice.

Series [9] concerns the target 5-HT7R (Homo sapiens, UniProt P34969). Put plainly: Radioligand binding assay, [3H]-5-CT displacement. Particulars: mean ± SD from two independent measurements; read-out: Ki 5-HT7. As for the experimental part:
as §1

In general, Ki refers to a dissociation constant, usually derived from enzyme kinetics or from competition with a known ligand. As a reminder, the inhibition is the percentage by which the read-out fell short of the control.

Chain of 5-HT7R (P34969 1-432): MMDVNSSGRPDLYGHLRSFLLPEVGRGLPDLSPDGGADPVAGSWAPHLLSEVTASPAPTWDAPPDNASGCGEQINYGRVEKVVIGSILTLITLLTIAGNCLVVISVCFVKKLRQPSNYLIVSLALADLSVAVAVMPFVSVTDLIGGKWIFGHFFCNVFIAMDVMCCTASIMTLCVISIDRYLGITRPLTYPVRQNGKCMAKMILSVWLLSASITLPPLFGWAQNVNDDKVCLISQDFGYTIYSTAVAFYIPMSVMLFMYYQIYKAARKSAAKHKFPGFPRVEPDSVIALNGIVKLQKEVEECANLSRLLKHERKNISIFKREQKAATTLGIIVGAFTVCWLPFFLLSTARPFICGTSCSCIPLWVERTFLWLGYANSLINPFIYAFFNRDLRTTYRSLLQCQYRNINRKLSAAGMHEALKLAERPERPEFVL
Chain of dopamine D2LR (P14416 whole entry): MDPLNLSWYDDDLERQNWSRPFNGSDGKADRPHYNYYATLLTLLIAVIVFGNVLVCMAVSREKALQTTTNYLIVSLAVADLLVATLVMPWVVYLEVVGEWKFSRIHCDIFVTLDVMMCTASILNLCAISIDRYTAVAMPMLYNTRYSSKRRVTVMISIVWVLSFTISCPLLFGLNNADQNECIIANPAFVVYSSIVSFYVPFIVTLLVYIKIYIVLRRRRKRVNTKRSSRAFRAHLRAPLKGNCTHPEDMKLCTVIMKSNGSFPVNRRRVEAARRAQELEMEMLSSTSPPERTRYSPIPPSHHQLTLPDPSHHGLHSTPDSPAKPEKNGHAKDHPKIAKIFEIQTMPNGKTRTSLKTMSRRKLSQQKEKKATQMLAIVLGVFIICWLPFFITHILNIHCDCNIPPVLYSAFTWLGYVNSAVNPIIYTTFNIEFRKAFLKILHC
Chain of 5-HT2AR (P28223 whole entry): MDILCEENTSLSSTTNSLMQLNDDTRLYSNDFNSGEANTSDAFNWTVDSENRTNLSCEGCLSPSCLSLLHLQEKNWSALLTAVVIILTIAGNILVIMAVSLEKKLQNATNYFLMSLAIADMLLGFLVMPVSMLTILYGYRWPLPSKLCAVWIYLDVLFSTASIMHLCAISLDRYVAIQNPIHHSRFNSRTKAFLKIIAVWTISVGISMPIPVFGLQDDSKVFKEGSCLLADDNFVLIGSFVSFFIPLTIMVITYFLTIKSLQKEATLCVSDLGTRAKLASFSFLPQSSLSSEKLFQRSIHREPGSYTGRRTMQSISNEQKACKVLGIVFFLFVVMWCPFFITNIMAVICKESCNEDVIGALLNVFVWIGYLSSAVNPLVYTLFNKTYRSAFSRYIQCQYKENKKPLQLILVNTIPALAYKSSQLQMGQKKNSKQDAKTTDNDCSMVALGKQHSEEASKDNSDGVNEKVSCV
T2 sequence (P25103 whole entry): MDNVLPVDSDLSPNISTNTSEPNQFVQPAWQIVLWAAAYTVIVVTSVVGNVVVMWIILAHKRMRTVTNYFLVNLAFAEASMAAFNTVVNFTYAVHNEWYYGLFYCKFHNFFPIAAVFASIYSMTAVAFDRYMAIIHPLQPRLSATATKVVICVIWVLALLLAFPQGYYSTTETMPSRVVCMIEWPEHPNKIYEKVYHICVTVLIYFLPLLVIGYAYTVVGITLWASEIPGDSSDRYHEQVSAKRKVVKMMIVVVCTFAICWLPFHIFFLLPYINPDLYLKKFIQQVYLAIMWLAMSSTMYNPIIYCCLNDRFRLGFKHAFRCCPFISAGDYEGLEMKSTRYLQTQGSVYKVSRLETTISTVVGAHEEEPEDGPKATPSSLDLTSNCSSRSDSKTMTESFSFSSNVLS

With `COc1ccccc1N1CCN(C[C@H](O)CN2C(=O)N[C@](C)(c3ccc(F)cc3)C2=O)CC1` [Compound 5.1, (R)-5-(4-Fluorophenyl)-3-((S)-2-hydroxy-3-(4-(2-methoxyphenyl)piperazin-1-yl)propyl)-5-methylimidazolidine-2,4-dione], the inhibition constant Ki in series [1] was 462 ± 94 nM; in series [2] it was 939 ± 153 nM.
As to `COc1ccccc1N1CCN(C[C@@H](O)CN2C(=O)N[C@@](C)(c3ccc(F)cc3)C2=O)CC1` [Compound 5.4, (S)-5-(4-Fluorophenyl)-3-((R)-2-hydroxy-3-(4-(2-methoxyphenyl)piperazin-1-yl)propyl)-5-methylimidazolidine-2,4-dione], in series [3], the “GABA (non-specific) % of inhibition of control specific binding” value was 7%. Moreover, the Ki in series [1] came out at 888 ± 97 nM; in series [2], 306 ± 71 nM; in series [7], 21.8 µM. The “decrease of immobility time vs vehicle” value in [4] (5 mg/kg i.p.) stood at 25%; in series [4] (10 mg/kg i.p.), 20%. Moreover, the inhibition at 1 µM in series [5] was found to be 2.9%. Further, the anxiolytic-like activity entry in series [6] was “inactive”. In addition, the “locomotor activity number of crossings ± SEM during 3–6 min” value in series [8] (5 mg/kg i.p.) was 138.75 ± 36.61; NS. In [8] (5 mg/kg i.p.), the “locomotor activity number of crossings ± SEM during 1 min” value is recorded as 18.50 ± 8.00; NS. Moreover, the “locomotor activity number of crossings ± SEM during 60 min” value in series [8] (5 mg/kg i.p.) is reported as 716.25 ± 117.75; p < 0.001.
On to `COc1ccccc1N1CCN(C[C@H](O)CN2C(=O)N[C@@](C)(c3ccc(F)cc3)C2=O)CC1` [Compound 5.3, (S)-5-(4-Fluorophenyl)-3-((S)-2-hydroxy-3-(4-(2-methoxyphenyl)piperazin-1-yl)propyl)-5-methylimidazolidine-2,4-dione], for which the Ki in [1] stood at 1110 ± 137 nM; in [2], 219 ± 43 nM.
`C[C@@]1(c2ccc(F)cc2)NC(=O)N(C[C@@H](O)CN2CCN(C(c3ccccc3)c3ccccc3)CC2)C1=O` [Compound 6.3, (S)-3-((S)-3-(4-Benzhydrylpiperazin-1-yl)-2-hydroxypropyl)-5-(4-fluorophenyl)-5-methylimidazolidine-2,4-dione]: the inhibitory constant (Ki) in [9] was determined as 120 ± 27 nM; in series [1], 312 ± 52 nM; in [7], 4.13 ± 0.983 µM.
`COc1ccccc1N1CCN(C[C@@H](O)CN2C(=O)N[C@](C)(c3ccc(F)cc3)C2=O)CC1` [Compound 5.2, (R)-5-(4-Fluorophenyl)-3-((R)-2-hydroxy-3-(4-(2-methoxyphenyl)piperazin-1-yl)propyl)-5-methylimidazolidine-2,4-dione]: the inhibition constant Ki is 712 ± 101 nM in [1], 1880 ± 351 nM in series [2] and 41.1 µM in series [7].
`C[C@]1(c2ccc(F)cc2)NC(=O)N(C[C@@H](O)CN2CCN(C(c3ccccc3)c3ccccc3)CC2)C1=O` [Compound 6.1, (R)-3-((S)-3-(4-Benzhydrylpiperazin-1-yl)-2-hydroxypropyl)-5-(4-fluorophenyl)-5-methylimidazolidine-2,4-dione]: the inhibition constant (Ki) in [9] came out at 2900 ± 461 nM; in series [1] it was 463 ± 75 nM; in series [7], 12.3 µM.
The matching figures for `C[C@]1(c2ccc(F)cc2)NC(=O)N(C[C@H](O)CN2CCN(C(c3ccccc3)c3ccccc3)CC2)C1=O` [Compound 6.2, (R)-3-((R)-3-(4-Benzhydrylpiperazin-1-yl)-2-hydroxypropyl)-5-(4-fluorophenyl)-5-methylimidazolidine-2,4-dione]: 9090 ± 1700 nM, 1520 ± 331 nM and 11.4 µM.
Consider `COc1ccccc1N1CCN(CC(O)CN2C(=O)NC(C)(c3ccc(F)cc3)C2=O)CC1` (stereo not shown) [Compound 1], for which the Ki in [1] came to 715 ± 163 nM; in [2] it was 121 ± 18 nM. The “decrease of immobility time vs vehicle” value in series [4] (2.5 mg/kg i.p.) is on record as “about 32%”; in series [4] (5 mg/kg i.p.) it was roughly 25%. For the same molecule, the anxiolytic-like activity result in [6] was “inactive”. The “locomotor activity number of crossings ± SEM during 1 min” value in [8] (2.5 mg/kg i.p.) was 10.50 ± 4.11; NS. In series [8] (2.5 mg/kg i.p.), the “locomotor activity number of crossings ± SEM during 60 min” value is 183.75 ± 33.41; p < 0.001.
